# System: total micro-organism
# Assay: Total microbial (plate) count of spent brewer's / wet distiller's grains stored at ambient temperature
# Type: cell-based
# Description: Samples of spent brewer's grains were drawn from the discharge line of a brewery in South Africa. The samples, packed in dry ice in a cold box, were transported over a distance of approximately 40 kilometres to a laboratory. At the laboratory, the samples were thoroughly mixed and initially split into a first portion (Portion 1) and a second portion (Portion 2). The second portion was about twice the size of the first. Portion 1 was left untreated. Material produced from Portion 1 and Portion 2 is designated below using the code “AR” (as received).
# Portion 2 was placed on a clean, standard, laboratory screen deck with 1.4 mm apertures supported from below. As much water as possible was manually squeezed out with a clean flat plastic disc and the sample was then manually remixed after the squeezing. The squeezed material was then split into a third portion (Portion 3) and a fourth portion (Portion 4) of approximately the same size. Material produced from Portion 3 and Portion 4 is designated below using the code “SO” (squeezed).
# Portion 4 was added to a high speed kitchen food-shredder and shredded for about two minutes. The shredded material was then returned to the 1.4 mm aperture screen and squeezed again, as described above, and manually remixed again after the second squeezing to produce a shredded and squeezed portion (Portion 5). Material produced from Portion 5 is designated below using the code “SH” (shredded).
# Samples of Portion 1 (“AR”), Portion 3 (“SO”) and Portion 5 (“SH”) were then delivered to a microbiological testing facility about 15 kilometres from the treatment laboratory. Each was tested for initial total microbial, yeast and mould counts, respectively.
# Separate untreated samples were similarly stored under insect-proof screens at ambient temperature for seven days (as shown in Tables 1 and 2). During the trial period the ambient temperature ranged from 11 to 33 degrees C.
# After exposure to the environment for seven days, all of the samples were tested at a South African National Accreditation System (SANAS) approved microbiological testing facility. Each was tested for total micro-organism, yeast and mould counts to determine the affect of the various treatments.
# Samples of spent brewer's grains were drawn from the discharge line of a brewery in South Africa.
# At the laboratory, the samples were thoroughly mixed and initially split into a first portion (Portion 1) and a second portion (Portion 2). Portion 1 was left untreated. A sample of Portion 1, was delivered immediately to a microbiological testing facility about 15 kilometres away from the treatment laboratory and was tested for initial total microbial, yeast and mould counts, respectively.
# Samples from Portion 2 were subjected to treatment with varying amounts of a powdered, commercially-available calcium oxide containing approximately 94% calcium oxide (CaO) as shown in Table 32. The treatments varied from 2.5 to 10% (w/w) calcium oxide addition. The samples were stored in batches (according to the calcium oxide treatment) under insect-proof screens at ambient temperature for fifty six days. […] During the trial period the ambient temperature ranged from 10 to 30 degrees C. As this period was the southern hemisphere spring/early summer, the humidity as well as ambient temperatures varied widely.
# Samples from each treatment were drawn every seven days. No further calcium oxide treatment or agitation took place after the initial mix. In each case the entire sample was isolated and delivered to the microbiological testing facility.
# (§1) In this trial the same source of wet distiller's grains (again with now partial water removal prior to treatment) was treated.
# as §1
# [1] = dose 5% w/w, distiller's grains not de-watered, Examples 16-18
compound,measurement,setting,value
[Ca+2].[OH-].[OH-] [(CaOH)2 powder],Total plate count,"dose 3.3% (w/w), week 0",60 cfu/gram
same,Total plate count,"dose 3.3% (w/w), week 1",12100 cfu/gram
same,Total plate count,"dose 3.3% (w/w), week 4",1750 cfu/gram
same,Total plate count,"dose 3.3% (w/w), week 5",20 cfu/gram
same,Total plate count,"dose 3.3% (w/w), week 6",<10 cfu/gram
same,Total plate count,"dose 3.3% (w/w), week 7",101000 cfu/gram
same,Total plate count,"dose 3.3% (w/w), week 8",3.20E+06 cfu/gram
same,Total plate count,"dose 6.6% (w/w), week 0",70 cfu/gram
same,Total plate count,"dose 6.6% (w/w), week 1",50 cfu/gram
same,Total plate count,"dose 6.6% (w/w), week 2",160 cfu/gram
same,Total plate count,"dose 6.6% (w/w), week 3",1550 cfu/gram
same,Total plate count,"dose 6.6% (w/w), week 4",290 cfu/gram
same,Total plate count,"dose 6.6% (w/w), week 5",<10 cfu/gram
same,Total plate count,"dose 6.6% (w/w), week 6",<10 cfu/gram
same,Total plate count,"dose 6.6% (w/w), week 7",5000 cfu/gram
same,Total plate count,"dose 6.6% (w/w), week 8",960000 cfu/gram
same,Total plate count,"dose 6.6% (w/w), week 9",1.24E+06 cfu/gram
[O]=[Ca] [calcium oxide],shelf life of fermentation residue,2.5% (w/w) calcium oxide powder added to the fermentation residue,at least 10 days
same,Total plate count,"5% CaO (w/w) powder, week 1",2770 cfu/gram
same,Total plate count,"5% CaO (w/w) powder, week 2",200 cfu/gram
same,Total plate count,"5% CaO (w/w) powder, week 3",4800 cfu/gram
same,Total plate count,"5% CaO (w/w) powder, week 4",10 cfu/gram
same,Total plate count,"5% CaO (w/w) powder, week 5",10 cfu/gram
same,shelf life of fermentation residue,10% (w/w) calcium oxide added to the fermentation residue,at least 63 days
same,effect on micro-organism levels,"calcium oxide 0.5% (w/w), Example 14",only a very limited effect
same,suppressed microbial levels up to day,"calcium oxide 1.0% (w/w), Example 14",8 days
same,preservation effect period,"calcium oxide 2.5% (w/w), Example 9",only the first week
same,preservation effect period,"calcium oxide 5.0% (w/w), Example 9",49 days
same,preservation effect period,"calcium oxide 10% (w/w), Example 9",56 days
same,preservation period,"calcium oxide 10% (w/w), Example 18",9 week
same,total microbial count after treatment,"calcium oxide 10% (w/w), spent brewer's grains, initial count 3,300,000",zero
same,preservation effect period,"calcium oxide levels of 2.0% and 2.5% (w/w), Example 14",10 days
same,microbial counts,"calcium oxide powder 5% and 10% (w/w), end of the 9 week period",<10 to 20 cfu/gram
same,preservation time with total microbial counts <10 cfu/g,[1],≧9 weeks
same,preservation time with total microbial counts <100 cfu/g,[1],≧9 weeks
same,preservation time with total microbial counts <1000 cfu/g,[1],≧9 weeks
same,preservation time with total microbial counts <10 cfu/g,"dose 10% w/w, distiller's grains not de-watered, Examples 16-18",≧9 weeks
same,Total plate count,"wet distiller's grains, 0.5% CaO (w/w), day 1",1.01E+06 cfu/gram
same,Total plate count,"wet distiller's grains, 0.5% CaO (w/w), day 2",680000 cfu/gram
same,Total plate count,"wet distiller's grains, 0.5% CaO (w/w), day 3",35000 cfu/gram
same,Total plate count,"wet distiller's grains, 0.5% CaO (w/w), day 6",5.60E+07 cfu/gram
same,Total plate count,"wet distiller's grains, 0.5% CaO (w/w), day 8",3.30E+06 cfu/gram
same,Total plate count,"wet distiller's grains, 1.0% CaO (w/w), day 1",3.50E+06 cfu/gram
same,Total plate count,"wet distiller's grains, 1.0% CaO (w/w), day 2",3600 cfu/gram
same,Total plate count,"wet distiller's grains, 1.0% CaO (w/w), day 3",720 cfu/gram
same,Total plate count,"wet distiller's grains, 1.0% CaO (w/w), day 6",120 cfu/gram
same,Total plate count,"wet distiller's grains, 1.0% CaO (w/w), day 8",320 cfu/gram
same,Total plate count,"wet distiller's grains, 1.0% CaO (w/w), day 10",4.70E+07 cfu/gram
same,Total plate count,"wet distiller's grains, 1.5% CaO (w/w), day 1",26200 cfu/gram
same,Total plate count,"wet distiller's grains, 1.5% CaO (w/w), day 2",110 cfu/gram
same,Total plate count,"wet distiller's grains, 1.5% CaO (w/w), day 3",40 cfu/gram
same,Total plate count,"wet distiller's grains, 1.5% CaO (w/w), day 6",90 cfu/gram
same,Total plate count,"wet distiller's grains, 1.5% CaO (w/w), day 8",730 cfu/gram
same,Total plate count,"wet distiller's grains, 1.5% CaO (w/w), day 10",70 cfu/gram
same,Total plate count,"wet distiller's grains, 2.0% CaO (w/w), day 1",1090 cfu/gram
same,Total plate count,"wet distiller's grains, 2.0% CaO (w/w), day 2",130 cfu/gram
same,Total plate count,"wet distiller's grains, 2.0% CaO (w/w), day 3",130 cfu/gram
same,Total plate count,"wet distiller's grains, 2.0% CaO (w/w), day 6",340 cfu/gram
same,Total plate count,"wet distiller's grains, 2.0% CaO (w/w), day 8",180 cfu/gram
same,Total plate count,"wet distiller's grains, 2.0% CaO (w/w), day 10",60 cfu/gram
same,Total plate count,"wet distiller's grains, 2.5% CaO (w/w), day 1",5300 cfu/gram
same,Total plate count,"wet distiller's grains, 2.5% CaO (w/w), day 2",60 cfu/gram
same,Total plate count,"wet distiller's grains, 2.5% CaO (w/w), day 3",240 cfu/gram
same,Total plate count,"wet distiller's grains, 2.5% CaO (w/w), day 6",90 cfu/gram
same,Total plate count,"wet distiller's grains, 2.5% CaO (w/w), day 7",10 cfu/gram
same,Total plate count,"wet distiller's grains, 2.5% CaO (w/w), day 8",150 cfu/gram
same,Total plate count,"wet distiller's grains, 2.5% CaO (w/w), day 10",50 cfu/gram
same,Total plate count,"wet distiller's grains, 2.5% CaO (w/w), day 14","74,000 cfu/gram"
same,Total plate count,"wet distiller's grains, 2.5% CaO (w/w), day 21","1,010,000 cfu/gram"
same,Total plate count,"wet distiller's grains, 2.5% CaO (w/w), day 56","6,800,000 cfu/gram"
same,Total plate count,"wet distiller's grains, 5.0% CaO (w/w), day 7",660 cfu/gram
same,Total plate count,"wet distiller's grains, 5.0% CaO (w/w), day 14","82,000 cfu/gram"
same,Total plate count,"wet distiller's grains, 5.0% CaO (w/w), day 21",180 cfu/gram
same,Total plate count,"wet distiller's grains, 5.0% CaO (w/w), day 42",20 cfu/gram
same,Total plate count,"wet distiller's grains, 5.0% CaO (w/w), day 49",50 cfu/gram
same,Total plate count,"wet distiller's grains, 5.0% CaO (w/w), day 56","3,400 cfu/gram"
same,Total plate count,"wet distiller's grains, 10.0% CaO (w/w), day 7",740 cfu/gram
same,Total plate count,"wet distiller's grains, 10.0% CaO (w/w), day 14",150 cfu/gram
same,Total plate count,"wet distiller's grains, 10.0% CaO (w/w), day 21",100 cfu/gram
same,Total plate count,"wet distiller's grains, 10.0% CaO (w/w), day 42",130 cfu/gram
same,Total plate count,"wet distiller's grains, 10.0% CaO (w/w), day 49",80 cfu/gram
same,Total plate count,"wet distiller's grains, 10.0% CaO (w/w), day 56",460 cfu/gram
[Ca+2].[O-]CC(O)CO.[O-]CC(O)CO [Ca-DGO granules],Total plate count,"dose 10% (w/w), week 0",80 cfu/gram
same,Total plate count,"dose 10% (w/w), week 1",510 cfu/gram
same,Total plate count,"dose 10% (w/w), week 2",3500 cfu/gram
same,Total plate count,"dose 10% (w/w), week 4",30 cfu/gram
same,Total plate count,"dose 10% (w/w), week 6",5400 cfu/gram
same,Total plate count,"dose 10% (w/w), week 8",410000 cfu/gram
same,Total plate count,"dose 10% (w/w), week 9",480000 cfu/gram
same,Total plate count,"dose 15% (w/w), week 0",180 cfu/gram
same,Total plate count,"dose 15% (w/w), week 1",150 cfu/gram
same,Total plate count,"dose 15% (w/w), week 4",70 cfu/gram
same,Total plate count,"dose 15% (w/w), week 5",650 cfu/gram
same,Total plate count,"dose 15% (w/w), week 6",120 cfu/gram
same,Total plate count,"dose 15% (w/w), week 7",700 cfu/gram
same,Total plate count,"dose 15% (w/w), week 8",270 cfu/gram
same,Total plate count,"dose 15% (w/w), week 9",150 cfu/gram
